Like-named read-outs stand apart in the source and are kept apart here.
Target: T1, F508delCFTR (Homo sapiens, UniProt P13569, DEL508-508)
T1 construct: expressed in transfected cells; host or cells: CFBE41o- human lung derived epithelial cells (CFBE41o-F508delCFTR-HRP), doxycycline-inducible
Assay: Cell Surface Expression-Horse Radish Peroxidase (CSE-HRP) Assay;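 for EC50 (with co-corrector): co-corrector chromenyl benzoic acid corrector at 2 or 3 µM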;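 for Maximum % activity (without co-corrector): % of on-plate positive control chromenyl benzoic acid corrector at 2 or 3 µM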
Format: cell-based
Settings: for Emax: read-out: Maximum % activity (without co-corrector)
Procedure, shortened: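 Corrector compounds were given as 8-point 3-fold series from 20 or 30 μM, with or without a 2 μM co-corrector, for 18-24 h at 33 °C. Surface HRP was read by luminol luminescence as % of positive control; variable-Hill-slope sigmoidal fitting gave EC50 from triplicate plates.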

[1] = test compound alone, without co-corrector, read-out: EC50 (without co-corrector)
[2] = with co-corrector, maximum at any tested concentration
[3] = with co-corrector, read-out: EC50 (with co-corrector)
[4] = without co-corrector, maximum at any tested concentration
[5] = test compound with co-corrector, maximum at any tested concentration
[6] = test compound with co-corrector, read-out: EC50 (with co-corrector)
[7] = test compound without co-corrector, maximum at any tested concentration
[8] = test compound without co-corrector, read-out: EC50 (without co-corrector)

T1 sequence (P13569 with tags, fused parts or gaps DEL508-508): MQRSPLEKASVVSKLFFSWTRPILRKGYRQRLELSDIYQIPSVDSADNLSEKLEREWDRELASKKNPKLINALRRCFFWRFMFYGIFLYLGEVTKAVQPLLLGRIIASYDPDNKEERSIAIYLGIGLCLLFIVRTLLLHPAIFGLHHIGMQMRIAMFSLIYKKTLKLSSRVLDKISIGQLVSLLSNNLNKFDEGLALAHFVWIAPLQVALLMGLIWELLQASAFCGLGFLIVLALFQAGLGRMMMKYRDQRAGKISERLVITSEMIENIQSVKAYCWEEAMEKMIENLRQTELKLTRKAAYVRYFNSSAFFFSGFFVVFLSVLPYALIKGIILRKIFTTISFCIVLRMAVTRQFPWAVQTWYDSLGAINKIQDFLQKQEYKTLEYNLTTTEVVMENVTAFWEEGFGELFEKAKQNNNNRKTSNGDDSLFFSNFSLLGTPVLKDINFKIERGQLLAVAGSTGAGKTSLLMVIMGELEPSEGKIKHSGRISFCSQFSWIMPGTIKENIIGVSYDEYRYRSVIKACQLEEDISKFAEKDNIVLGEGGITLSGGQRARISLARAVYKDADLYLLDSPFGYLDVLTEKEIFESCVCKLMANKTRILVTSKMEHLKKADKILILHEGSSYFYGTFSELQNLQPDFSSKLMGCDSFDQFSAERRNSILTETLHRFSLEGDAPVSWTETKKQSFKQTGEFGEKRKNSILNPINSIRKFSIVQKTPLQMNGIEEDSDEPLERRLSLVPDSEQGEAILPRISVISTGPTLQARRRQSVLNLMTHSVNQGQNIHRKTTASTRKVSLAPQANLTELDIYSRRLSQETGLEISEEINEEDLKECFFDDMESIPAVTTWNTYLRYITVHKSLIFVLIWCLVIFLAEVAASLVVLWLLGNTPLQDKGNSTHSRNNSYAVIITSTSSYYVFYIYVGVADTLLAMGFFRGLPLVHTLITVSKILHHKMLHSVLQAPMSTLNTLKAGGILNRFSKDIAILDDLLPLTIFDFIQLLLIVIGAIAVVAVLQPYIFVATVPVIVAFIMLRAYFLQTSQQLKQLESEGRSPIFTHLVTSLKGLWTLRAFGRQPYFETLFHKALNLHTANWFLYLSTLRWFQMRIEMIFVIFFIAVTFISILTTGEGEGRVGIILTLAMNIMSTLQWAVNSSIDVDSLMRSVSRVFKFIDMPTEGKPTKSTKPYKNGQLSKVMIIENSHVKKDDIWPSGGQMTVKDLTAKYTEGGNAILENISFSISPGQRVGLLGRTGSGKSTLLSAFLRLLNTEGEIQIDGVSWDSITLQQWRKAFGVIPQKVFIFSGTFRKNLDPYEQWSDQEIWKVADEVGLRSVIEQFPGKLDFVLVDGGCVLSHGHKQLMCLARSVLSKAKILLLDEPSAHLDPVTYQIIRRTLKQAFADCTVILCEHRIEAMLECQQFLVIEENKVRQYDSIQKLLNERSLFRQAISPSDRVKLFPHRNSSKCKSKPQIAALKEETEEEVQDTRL

SMILES | EC50 [1] [µM] | Maximum % activity (with co-corrector) [2] | EC50 [3] [µM] | Emax [4] [%] | Maximum % activity (with co-corrector) [5] | EC50 [6] [µM] | Emax [7] [%] | EC50 [8] [µM] | Emax [%]
CCOc1ccc(OC)c(C2(C(=O)NS(=O)(=O)c3cccc4nc(C)ccc34)CC2)c1 [Example I-69, 1-(5-ethoxy-2-methoxyphenyl)-N-(2-methylquinoline-5-sulfonyl)cyclopropane-1-carboxamide] | < 3 | +++ (≥350) | < 3 | > 150 |  |  |  |  | 
CCOc1cccc(OCC)c1C1(C(=O)NS(=O)(=O)c2cccc3ncccc23)CC1 [Example I-66, 1-(2,6-diethoxyphenyl)-N-(quinoline-5-sulfonyl)cyclopropane-1-carboxamide] | < 3 | +++ (≥350) | < 3 | > 150 |  |  |  |  | 
Cc1ccc2c(S(=O)(=O)NC(=O)C3(c4nc(OCC(C)C)ccc4OC(C)C)CC3)cccc2n1 [Example GI-90, 1-{6-(2-methylpropoxy)-3-[(propan-2-yl)oxy]pyridin-2-yl}-N-(2-methylquinoline-5-sulfonyl)cyclopropane-1-carboxamide] |  |  |  |  | +++ (≥350) | < 3 | > 150 | < 3 | 
Cc1ccc(C2(C(=O)NS(=O)(=O)c3cccc4nc(C)ccc34)CC2)c(OC(C)C)n1 [Example GI-81, 1-{6-methyl-2-[(propan-2-yl)oxy]pyridin-3-yl}-N-(2-methylquinoline-5-sulfonyl)cyclopropane-1-carboxamide] |  |  |  |  | +++ (≥350) | < 3 | > 150 | < 3 | 
COC(=O)c1ccc(OC)c(C2(C(=O)NS(=O)(=O)c3cccc4ncccc34)CC2)c1 [II-31] | 3 to 10 | +++ (≥350) | < 3 |  |  |  |  |  | > 150
COc1cc(OC(C)C)c(C2(C(=O)NS(=O)(=O)c3cccc4nc(C)ccc34)CC2)cn1 [Example GI-18, 1-{6-methoxy-4-[(propan-2-yl)oxy]pyridin-3-yl}-N-(2-methylquinoline-5-sulfonyl)cyclopropane-1-carboxamide] | 3 to 10 | +++ (≥350) | < 3 | > 150 |  |  |  |  | 

Now from value to compound, other results behind:

EC50 [1] [µM] | Maximum % activity (with co-corrector) [2] | EC50 [3] [µM] | Emax [4] [%] | Maximum % activity (with co-corrector) [5] | EC50 [6] [µM] | Emax [7] [%] | EC50 [8] [µM] | SMILES | Emax [%]
3 to 10 | +++ (≥350) | 3 to 10 | 50 to 150 |  |  |  |  | O=C(NS(=O)(=O)c1ccccc1)C1(c2ccc(Cl)cc2Cl)CC1 [Example III-3, N-(benzenesulfonyl)-1-(2,4-dichlorophenyl)cyclopropane-1-carboxamide] | 
> 10 | + (<150) | > 10 | < 50 |  |  |  |  | COc1ccc(C2(C(=O)NS(=O)(=O)c3cccc4ccccc34)CCCC2)cc1OC [Example III-90, 1-(3,4-dimethoxyphenyl)-N-(naphthalene-1-sulfonyl)cyclopentane-1-carboxamide] | 
 |  |  |  | +++ (≥350) | 3 to 10 | > 150 | 3 to 10 | COc1cc(C)c(C2(C(=O)NS(=O)(=O)c3cccc4ccccc34)CC2)cn1 [GII-22, 1-(6-methoxy-4-methylpyridin-3-yl)-N-(naphthalene-1-sulfonyl)cyclopropane-1-carboxamide] | 
 |  |  |  | +++ (≥350) | 3 to 10 | 50 to 150 | 3 to 10 | COc1cc(C2(C(=O)NS(=O)(=O)c3cccc4c3CCCN4)CC2)c(Cl)cn1 [GII-7, 1-(5-chloro-2-methoxypyridin-4-yl)-N-(1,2,3,4-tetrahydroquinoline-5-sulfonyl)cyclopropane-1-carboxamide] | 
